Results taken from US10954269B2, “Anti-inflammatory tripeptides” (Dr. August Wolff Gmbh & Co. KG Arzneimittel, priority 2013, dated 2021).

Tests used:
Conditions in all cases: substance 10^−9M
[1] = system: human keratinocyte cell line (HaCaT); assay: Cytokine secretion on protein level in activated human keratinocyte cell line HaCaT (13-plex FACS / Luminex, supernatant); type: cell-based
Description: (§1) Primary T-cells were isolated from peripheral blood from healthy volunteers and from secondary lymphatic organs from naïve C57BL/6 mice, respectively. The cells were stimulated with phorbol-12-myristate-13-acetate (PMA)/Ionomycin and interferon-gamma (IFN-γ), respectively, for 48 h to activate the cells. The activated cells release pro-inflammatory cytokines. In parallel a human (HaCaT) keratinocyte cell line was activated with PMA/Ionomycin and IFN-γ, respectively, too. […] At the same time release of anti-inflammatory IL-10 was inhibited. Two days after addition of PMA/Ionomycin and IFN-γ, respectively, the induction of IL-1 secretion was determined in the supernatant for proving that the cells are activated. […] The anti-inflammatory properties of the tripeptides were determined 48 h and 72 h following stimulation. A 13-plex-system based FACS analysis was used for showing the reduced secretion of pro-inflammatory cytokines in the supernatant. Data for IL-1, IL-2, IL-6, IL-12p70 IL-17, IFN-γ and TNF-α are considered to be most relevant. Thus, analysis of the anti-inflammatory properties of the tripeptides is preferably based on the results obtained for these analytes. […] Using this method the gene expression of pro-inflammatory markers like IL-6, IL-17, IFN-γ and TNF-α was determined.
(§2) In a third experiment murine and human T cells and HaCaT cells were stimulated with PMA/Ionomycin and treated with Examples 14, 15, 16 and 17 at 10^−7 M, 10^−9 M and 10^−11 M. Cytokine concentrations (IFN-γ, IL-17 and IL-10 for T cells and IFN-γ for HaCat) were assessed in the supernatants using the Luminex technology. Expression of genes coding for Il-1β, IL-6 and TNF-α was determined. […] Moreover, concentrations of pro-inflammatory cytokines IFN-γ and IL-17 was reduced in the supernatants whereas the concentration of anti-inflammatory cytokine IL-10 was increased. […]
(§3) For the biological assay two human cell lines of different origin were chosen to allow for translation of the results obtained. A HaCaT cell is a cell type belonging to an immortal human keratinocyte line used in scientific research. Its use in research allows for the characterization of human keratinocyte using a model that is reproducible and representing a human epithelial cell line. In contrast human T-lymphocytes (T-cells) are a type of lymphocyte (itself a type of white blood cell) that play a central role in cell-mediated inflammation/immunity.

primary murine T-cells = assay: Cytokine secretion on protein level in activated primary murine T-cells (13-plex FACS / Luminex, supernatant); type: cell-based, C57BL/6 mice
Description: as §1
In a third experiment murine and human T cells and HaCaT cells were stimulated with PMA/Ionomycin and treated with Examples 14, 15, 16 and 17 at 10^−7 M, 10^−9 M and 10^−11 M. Cytokine concentrations (IFN-γ, IL-17 and IL-10 for T cells and IFN-γ for HaCat) were assessed in the supernatants using the Luminex technology. Expression of genes coding for Il-1β, IL-6 and TNF-α was determined. […] Moreover, concentrations of pro-inflammatory cytokines IFN-γ and IL-17 was reduced in the supernatants whereas the concentration of anti-inflammatory cytokine IL-10 was increased.
The anti-inflammatory and immunomodulatory effects of selected examples of the present invention were compared with common immunosuppressants. Thus, cells activated with PMA/Ionomycin and IFN-γ, respectively, were stimulated with MMF or dexamethasone. Following stimulation the secretion of pro-inflammatory cytokines was analyzed on protein and gene level (Table 9 and FIGS. 4-6).

primary human T-cells = assay: Cytokine secretion on protein level in activated primary human T-cells (13-plex FACS / Luminex, supernatant); type: cell-based
Description: as §1, §2, §3

[2] = HaCaT stimulated with PMA/Ionomycin
[3] = primary murine T-cells stimulated with IFN-γ
[4] = primary murine T-cells stimulated with PBS
[5] = primary murine T-cells stimulated with PMA/Ionomycin
[6] = primary human T-cells stimulated with IFN-γ
[7] = primary human T-cells stimulated with PBS
[8] = primary human T-cells stimulated with PMA/Ionomycin

## C[C@@H]1C[C@H]2[C@@H]3CCC4=CC(=O)C=C[C@]4(C)[C@@]3(F)[C@@H](O)C[C@]2(C)[C@@]1(O)C(=O)CO [dexamethasone, reference compound]
[1]; HaCaT stimulated with IFN-γ
  IL-1 cytokine concentration: 0 pg/mL
  IL-2 cytokine concentration: 0 pg/mL
  IL-4 cytokine concentration: 39.78 pg/mL
  IL-5 cytokine concentration: 0 pg/mL
  IL-6 cytokine concentration: 204.99 pg/mL
  IL-9 cytokine concentration: 0 pg/mL
  IL-10 cytokine concentration: 0 pg/mL
  IL-12 cytokine concentration: 0 pg/mL
  IL-13 cytokine concentration: 0 pg/mL
  IL-17 cytokine concentration: 69.14 pg/mL
  IL-22 cytokine concentration: 0 pg/mL
  TNF-α cytokine concentration: 0 pg/mL
[1]; HaCaT stimulated with PBS
  IFN-γ cytokine concentration: 12.98 pg/mL
  IL-1 cytokine concentration: 0 pg/mL
  IL-2 cytokine concentration: 0 pg/mL
  IL-4 cytokine concentration: 133.98 pg/mL
  IL-5 cytokine concentration: 0 pg/mL
  IL-6 cytokine concentration: 44.79 pg/mL
  IL-9 cytokine concentration: 0 pg/mL
  IL-10 cytokine concentration: 30.89 pg/mL
  IL-12 cytokine concentration: 0 pg/mL
  IL-13 cytokine concentration: 0 pg/mL
  IL-17 cytokine concentration: 0 pg/mL
  IL-22 cytokine concentration: 0 pg/mL
  TNF-α cytokine concentration: 0 pg/mL
[1]; [2]
  IFN-γ cytokine concentration: 0 pg/mL
  IL-1 cytokine concentration: 0 pg/mL
  IL-2 cytokine concentration: 0 pg/mL
  IL-4 cytokine concentration: 91.48 pg/mL
  IL-5 cytokine concentration: 0 pg/mL
  IL-6 cytokine concentration: 124.98 pg/mL
  IL-9 cytokine concentration: 0 pg/mL
  IL-10 cytokine concentration: 54.10 pg/mL
  IL-12 cytokine concentration: 0 pg/mL
  IL-13 cytokine concentration: 0 pg/mL
  IL-17 cytokine concentration: 0 pg/mL
  IL-22 cytokine concentration: 0 pg/mL
  TNF-α cytokine concentration: 0 pg/mL
Primary murine T-cells; [3]
  IL-1 cytokine concentration: 64.89 pg/mL
  IL-2 cytokine concentration: 70.49 pg/mL
  IL-4 cytokine concentration: 61.11 pg/mL
  IL-5 cytokine concentration: 208.28 pg/mL
  IL-6 cytokine concentration: 108.76 pg/mL
  IL-10 cytokine concentration: 905.55 pg/mL
  IL-13 cytokine concentration: 0 pg/mL
  IL-17 cytokine concentration: 52.48 pg/mL
  IL-21 cytokine concentration: 0 pg/mL
  IL-22 cytokine concentration: 37.13 pg/mL
  IL-27 cytokine concentration: 21.29 pg/mL
  TNF-α cytokine concentration: 32.32 pg/mL
Primary murine T-cells; [4]
  IFN-γ cytokine concentration: 0 pg/mL
  IL-1 cytokine concentration: 50.19 pg/mL
  IL-2 cytokine concentration: 98.48 pg/mL
  IL-4 cytokine concentration: 64.23 pg/mL
  IL-5 cytokine concentration: 249.8 pg/mL
  IL-6 cytokine concentration: 88.47 pg/mL
  IL-10 cytokine concentration: 586.12 pg/mL
  IL-13 cytokine concentration: 0 pg/mL
  IL-17 cytokine concentration: 0 pg/mL
  IL-21 cytokine concentration: 0 pg/mL
  IL-22 cytokine concentration: 69.18 pg/mL
  IL-27 cytokine concentration: 84.69 pg/mL
  TNF-α cytokine concentration: 67.18 pg/mL
Primary murine T-cells; [5]
  IFN-γ cytokine concentration: 1777.98 pg/mL
  IL-1 cytokine concentration: 160.95 pg/mL
  IL-2 cytokine concentration: 97.41 pg/mL
  IL-4 cytokine concentration: 57.84 pg/mL
  IL-5 cytokine concentration: 198.45 pg/mL
  IL-6 cytokine concentration: 144.26 pg/mL
  IL-10 cytokine concentration: 899.74 pg/mL
  IL-13 cytokine concentration: 0 pg/mL
  IL-17 cytokine concentration: 76.12 pg/mL
  IL-21 cytokine concentration: 0 pg/mL
  IL-22 cytokine concentration: 97.01 pg/mL
  IL-27 cytokine concentration: 94.12 pg/mL
  TNF-α cytokine concentration: 36.25 pg/mL
Primary human T-cells; [6]
  IL-1 cytokine concentration: 0 pg/mL
  IL-2 cytokine concentration: 0 pg/mL
  IL-4 cytokine concentration: 0 pg/mL
  IL-5 cytokine concentration: 0 pg/mL
  IL-6 cytokine concentration: 56.47 pg/mL
  IL-9 cytokine concentration: 0 pg/mL
  IL-10 cytokine concentration: 0 pg/mL
  IL-12 cytokine concentration: 0 pg/mL
  IL-13 cytokine concentration: 0 pg/mL
  IL-17 cytokine concentration: 0 pg/mL
  IL-22 cytokine concentration: 0 pg/mL
  TNF-α cytokine concentration: 0 pg/mL
Primary human T-cells; [7]
  IFN-γ cytokine concentration: 0 pg/mL
  IL-1 cytokine concentration: 0 pg/mL
  IL-2 cytokine concentration: 0 pg/mL
  IL-4 cytokine concentration: 0 pg/mL
  IL-5 cytokine concentration: 0 pg/mL
  IL-6 cytokine concentration: 80.63 pg/mL
  IL-9 cytokine concentration: 13.05 pg/mL
  IL-10 cytokine concentration: 45.66 pg/mL
  IL-12 cytokine concentration: 0 pg/mL
  IL-13 cytokine concentration: 55.12 pg/mL
  IL-17 cytokine concentration: 69.45 pg/mL
  IL-22 cytokine concentration: 0 pg/mL
  TNF-a cytokine concentration: 41.45 pg/mL
Primary human T-cells; [8]
  IFN-γ cytokine concentration: 888.61 pg/mL
  IL-1 cytokine concentration: 448.69 pg/mL
  IL-2 cytokine concentration: 2198.45 pg/mL
  IL-4 cytokine concentration: 79.02 pg/mL
  IL-5 cytokine concentration: 297.13 pg/mL
  IL-6 cytokine concentration: 1078.6 pg/mL
  IL-9 cytokine concentration: 392.74 pg/mL
  IL-10 cytokine concentration: 799.85 pg/mL
  IL-12 cytokine concentration: 0 pg/mL
  IL-13 cytokine concentration: 1099.59 pg/mL
  IL-17 cytokine concentration: 1134.18 pg/mL
  IL-22 cytokine concentration: 0 pg/mL
  TNF-a cytokine concentration: 3264.56 pg/mL
